{"source": "patent US9976146B2", "about": "“Aptamer targeting MAGE-A3 peptide and uses thereof” (Academia Sinica, priority 2014, dated 2018)", "key": {"MAGE-A3111-125 peptide [1]": {"target": "T1, MAGE-A3111-125 peptide (Homo sapiens, UniProt P43357)", "assay": "Peptide-magnetic bead binding assay with elution and PCR amplification (FIG. 1)", "conditions": "peptide on streptavidin-coupled magnetic beads", "excerpt": "FIG. 1 is a photograph illustrating the PCR results of the binding affinity and specificity between Ap52 of Example 2 and specified peptides, in which peptide MAGE-A3111-125 (+), NY-ESO-1119-143 (N1), NY-ESO-1157-170 (N2), NY-ESO-187-111 (N3), or no peptide (−) were reacted with Ap52, followed by elution and PCR amplification; PB served as a control of oligonucleotide aptamer;\nA total of ninety-four different sequences were obtained and further assayed individually for its binding affinity and specificity to MAGE-A3111-125. Plasmid DNA was first amplified by use of anchored PCR, as described above. The resulting ssDNA products were purified through 12% denaturing PAGE and incubated with the biotinylated peptide MAGE-A3111-125, which was pre-incubated with the streptavidin-coupled magnetic beads and thus formed a peptide-magnetic bead complex through the streptavidin-biotin interaction. The sequences that bound specifically to the peptide MAGE-A3111-125 were isolated by the magnet and subject to further purification, as the procedure described in library selection.\nThus, Ap52 is highly specific in terms of binding with MAGE-A3111-125 peptide."}, "MAGE-A3111-125 peptide [2]": {"target": "T1, MAGE-A3111-125 peptide", "assay": "Isothermal titration calorimetry (ITC) for dissociation constant (Kd) determination", "type": "binding", "description": "Isothermal Titration Calorimetry (ITC) for Dissociation Constant (Kd) Determination\nThermodynamic profile of the interaction between DNA and peptide was measured with a MicroCal iTC200 (GE Healthcare Life Sciences) at 25° C. in washing buffer (0.45% glucose, 5 mM MgCl2, in Dulbecco's Phosphate-Buffered Saline). The unmodified MAGE-A3111-125 peptide (0.3 mM, 200 μl) was titrated with 18 successive injections of 2 μl aptamer (0.1 mM) at 150 s intervals. The data were analyzed using MicroCal Origin 7 and fit with a one-set-of sites binding model to obtain values of enthalpy change (AH) and association constant (Ka).\nIsothermal titration calorimetry (ITC) is a technique used to measure the thermodynamic profile of the interactions between two molecules, and thus can be used to determine the respective binding affinities of Ap16 and Ap52 to MAGE-A3111-125 peptide. […] Therefore, both Ap52 and Ap16 are effective in targeting MAGE-A3111-125-peptide."}, "[3]": {"conditions": "ITC at 25° C. in washing buffer, one-set-of sites binding model"}}, "note": "pKd: −log10 of the molar value."}
{"substance": "Ap16-control: 16-nucleotide region (SEQ ID NO: 7) from another oligonucleotide selected from SELEX, used as a negative control (ATCATTCGGATGTGTG; listed as DNA, chemistry not fully specified)", "values": [{"measurement": "binding to MAGE-A3111-125 peptide", "setting": "MAGE-A3111-125 peptide [1]", "value": "failed to bind"}]}
{"substance": "Ap16: oligonucleotide aptamer of 16 nucleotides AGCACTCAATATTCCC (SEQ ID NO: 1), central randomized region of Ap52 (listed as DNA, chemistry not given here)", "values": [{"measurement": "pKd", "setting": "MAGE-A3111-125 peptide [2]; [3]", "value": 7.02}, {"measurement": "ΔH (enthalpy change)", "setting": "MAGE-A3111-125 peptide [2]; [3]", "value": -41, "unit": "kcal/mol"}, {"measurement": "Kd values, in words", "setting": "MAGE-A3111-125 peptide [2]; general statement on binding to the MAGE-A3 peptide", "value": "nanomolar range"}]}
